Laboratory results reported in article PMC6309945 (The FEBS journal, 2018).
Non-standard residues stand in square brackets, D forms with d. Residues, ends and D or L forms follow the SMILES beside them. *: point of attachment. Sta = CC(C)C[C@H](N)[C@@H](O)CC(=O)O; Isovaleryl = CC(C)CC(=O)*

How the values were obtained:
[1] = system: human foreskin fibroblasts (HFF); assay: MTT cytotoxicity assay; type: cell-based
[2] = target: plasmepsin II (PMII) (Plasmodium falciparum, UniProt P46925); assay: Fluorogenic substrate inhibition assay of mature soluble recombinant PMII; type: biochemical
Chain of plasmepsin II (PMII) (P46925 125-453): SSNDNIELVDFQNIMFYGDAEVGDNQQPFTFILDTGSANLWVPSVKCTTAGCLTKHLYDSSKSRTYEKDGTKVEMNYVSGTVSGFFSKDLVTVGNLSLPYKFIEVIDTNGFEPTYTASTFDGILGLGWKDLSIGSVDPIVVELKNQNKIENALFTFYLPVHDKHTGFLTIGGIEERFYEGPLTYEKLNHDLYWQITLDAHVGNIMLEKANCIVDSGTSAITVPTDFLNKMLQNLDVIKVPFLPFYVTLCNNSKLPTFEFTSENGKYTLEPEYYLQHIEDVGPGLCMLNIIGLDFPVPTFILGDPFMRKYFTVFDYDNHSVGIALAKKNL

Cc1cc(N(C)CCN(C)C)cc(C)c1OCC(=O)N[C@@H](Cc1ccccc1)[C@H](O)C(=O)N1CSC(C)(C)[C@H]1C(=O)N[C@H]1c2ccccc2C[C@H]1O [KNI-10743]
Cytotoxicity (cell viability, MTT) ([1]; highest concentration tested 25 µM, continuous exposure for 2 consecutive days): no significant cytotoxicity
Morphology of cells ([1]; light microscopy, compared to cisplatin-treated cells): remains intact

CC(C)CC(=O)N[C@H](C(=O)N[C@H](C(=O)N[C@@H](CC(C)C)[C@@H](O)CC(=O)N[C@@H](C)C(=O)N[C@@H](CC(C)C)[C@@H](O)CC(=O)O)C(C)C)C(C)C [Pepstatin A] (Isovaleryl-VV[Sta]A[Sta]-OH)
Ki [2]: 70 pM
